Results published in patent US7022736B2, “Enzyme inhibitors” (Istituto Di Ricerche Di Biologia Molecolare P Angeletti SpA, priority 1998, dated 2006).
pIC50: −log10 of the molar value.

Molecular target: T1, HCV RdRp (NS5B RNA-dependent RNA polymerase) (Hepatitis C virus genotype 1b, UniProt P26663)
T1 construct: The HCV NS5B protein is the viral RdRp; made in house; host or cells: insect cells infected with recombinant baculovirus
Test: Inhibition of hepatitis C virus RdRp (poly(A)/oligo(U), [3H]UTP incorporation)
Assay type: biochemical
Details: Tables I-VIII; 20 nM NS5B, 1 hour at 22° C.; read-out: IC 50 (μM), HCV-polymerase
Protocol: In initial tests, the compounds were tested to see if they were effective as inhibitors of the RNA-dependent RNA polymerase (RdRp) of hepatitis C virus (HCV). The HCV NS5B protein is the viral RdRp; compounds capable of interfering with the activity of this enzyme are thus expected to block viral replication.
Test for Inhibition of Hepatatis C Virus RdRp
WO96/37619 describes the production of recombinant HCV RdRp from insect cells infected with recombinant baculovirus encoding the enzyme. […] The reference describes a polymerisation assay using poly (A) as a template and oligo (U) as a primer. Incorporation of tritiated UTP is quantified by measuring acid-insoluble radioactivity. The present inventors have employed this assay to screen the various compounds described above as inhibitors of HCV RdRp and other virally encoded polymerases.
Incorporation of radioactive UMP was measured as follows. The standard reaction (100 μl) was carried out in a buffer containing 20 mM tris/HCl pH 7.5, 5 mM MgCl2, 1 mM DTT, 50 mM NaCl, 1 mM EDTA, 2 OU Rnasin (Promega), 0.05% Triton X-100, 1 μCi[^3H] UTP (40 Ci/mmol,NEN), 10 μM UTP and 10 μg/ml poly (A). Oligo (U)12 (1 μg/ml, Genset) was added as a primer. The final NSSB enzyme concentration was 20 nM. After 1 hour incubation at 22° C. the reaction was stopped by adding 100 μl of 20% TCA and applying samples to DE81 filters. The filters were washed thoroughly with 5% TCA containing 1M Na2HPO4/NaH2PO4, pH 7.0, rinsed with water and then ethanol, air dried, and the filter-bound radioactivity was measured in the scintillation counter. By carrying out the reaction in the presence of various concentrations of each of the compounds set out above it was possible to determine IC50 values for each compound with the formula: % residual activity=100/(1+[I]/IC50)^s where [I] is the inhibitor concentration and “s” is the slope of the inhibition curve. Test for Inhibition of Hepatitis B Virus Polymerase

T1 sequence (P26663 2420-3010): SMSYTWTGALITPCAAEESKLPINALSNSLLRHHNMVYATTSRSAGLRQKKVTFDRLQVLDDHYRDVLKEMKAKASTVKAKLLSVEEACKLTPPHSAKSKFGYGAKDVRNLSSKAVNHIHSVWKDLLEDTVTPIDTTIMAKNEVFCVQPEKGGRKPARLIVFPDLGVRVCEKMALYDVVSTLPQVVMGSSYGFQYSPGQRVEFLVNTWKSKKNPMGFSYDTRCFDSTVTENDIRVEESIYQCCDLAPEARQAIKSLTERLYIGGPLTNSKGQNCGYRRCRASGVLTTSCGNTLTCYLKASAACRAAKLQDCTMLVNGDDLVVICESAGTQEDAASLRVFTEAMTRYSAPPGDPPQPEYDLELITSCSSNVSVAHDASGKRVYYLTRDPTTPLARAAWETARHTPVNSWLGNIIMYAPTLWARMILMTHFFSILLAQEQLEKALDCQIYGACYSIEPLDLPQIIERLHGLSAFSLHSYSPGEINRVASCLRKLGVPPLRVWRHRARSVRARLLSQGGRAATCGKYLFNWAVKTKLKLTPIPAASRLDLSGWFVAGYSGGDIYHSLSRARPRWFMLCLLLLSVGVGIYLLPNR

Row | SMILES | IC50 [µM]
1 | Cc1ccccc1C(=O)C=C(O)C(=O)O [Example 2] | 3
2 | O=C(O)C(O)=CC(=O)c1cccc(-c2ccccc2)c1 [Example 3] | 27.9
3 | C=CCOc1cccc(C(=O)C=C(O)C(=O)O)c1 [Example 5] | 17
4 | O=C(O)C(O)=CC(=O)c1ccccc1C(F)(F)F [Example 6] | 18
5 | O=C(O)C(O)=CC(=O)c1ccccc1OCC1CCCCC1 [Example 9] | 51
6 | O=C(O)C(O)=CC(=O)c1cccc(OCC2CCCCC2)c1 [Example 10] | 20
7 | O=C(O)C(O)=CC(=O)c1cccc(OC2CCCCC2)c1 [Example 11] | 7.08
8 | O=C(O)C(O)=CC(=O)c1cccc(NCc2ccccc2)c1 [Example 12] | 16.7
9 | N#CCCCOc1cccc(C(=O)C=C(O)C(=O)O)c1 [Example 13] | 2.6
10 | O=C(O)COc1cccc(C(=O)C=C(O)C(=O)O)c1 [Example 14] | 26
11 | O=C(O)C(O)=CC(=O)c1cccc(N2CCCC2)c1 [Example 15] | 83.5
12 | COc1ccccc1C(=O)C=C(O)C(=O)O [Example 17] | 11.6
13 | O=C(O)C(O)=CC(=O)c1cccc(OCCCCn2c(C(F)(F)F)nc3ccccc32)c1 [Example 22] | 19
14 | N#Cc1ccc(COc2ccccc2C(=O)C=C(O)C(=O)O)cc1 [Example 25] | 28
15 | N#Cc1cccc(COc2ccccc2C(=O)C=C(O)C(=O)O)c1 [Example 26] | 26
16 | N#Cc1cccc(COc2cccc(C(=O)C=C(O)C(=O)O)c2)c1 [Example 28] | 6.2
17 | CCCOc1ccccc1C(=O)C=C(O)C(=O)O [Example 29] | 3.9
18 | CCCCCCOc1cccc(C(=O)C=C(O)C(=O)O)c1 [Example 30] | 15
19 | CCCCCCCOc1ccccc1C(=O)C=C(O)C(=O)O [Example 31] | 18
20 | CC(C)COc1ccccc1C(=O)C=C(O)C(=O)O [Example 32] | 6.1
21 | O=C(O)C(O)=CC(=O)c1ccccc1SC1CCCCC1 [Example 33] | 18.2

Row | SMILES | IC50 [µM]
22 | CCCSc1ccccc1C(=O)C=C(O)C(=O)O [Example 34] | 9.6
23 | N#CCCCOc1ccc(OCCCC#N)c(C(=O)C=C(O)C(=O)O)c1 [Example 35] | 6.1
24 | O=C(O)C(O)=CC(=O)c1ccccc1Oc1ccc(F)cc1 [Example 37] | 18
25 | O=C(O)C(O)=CC(=O)c1ccccc1Oc1ccc(Cl)cc1 [Example 38] | 16
26 | Cc1ccc(Oc2ccccc2C(=O)C=C(O)C(=O)O)cc1 [Example 39] | 22
27 | O=C(O)C(O)=CC(=O)c1cccc(N(Cc2ccccc2)Cc2ccccc2)c1 [Example 41] | 28.9
28 | O=C(O)C(O)=CC(=O)c1ccccc1N(Cc1ccccc1)Cc1ccccc1 [Example 42] | 16.6
29 | O=C(O)C(O)=CC(=O)c1cccc(Cc2cccc(Cl)c2)c1 [Example 43] | 20
30 | O=C(O)C(O)=CC(=O)c1cccc(Oc2ccccc2)c1 [Example 44] | 18.5
31 | O=C(O)C(O)=CC(=O)c1cccc(Cc2ccc(Cl)cc2)c1 [Example 45] | 12.9
32 | O=C(O)C(O)=CC(=O)c1cccc(Cc2ccc(F)cc2)c1 [Example 46] | 30.1
33 | O=C(O)C(O)=CC(=O)c1cccc(C2=CCCc3ccccc32)c1 [Example 47] | 20.7
34 | O=C(O)C(O)=CC(=O)c1cccc(Cc2cccc(Br)c2)c1 [Example 48] | 22
35 | O=C(O)C(O)=CC(=O)c1cccc(Cc2cc(Br)cc(Br)c2)c1 [Example 49] | 32
36 | C#CCCCOc1ccccc1C(=O)C=C(O)C(=O)O [Example 51] | 1.9
37 | CCCCOc1ccccc1C(=O)C=C(O)C(=O)O [Example 52] | 10
38 | N#CCCCOc1ccc(Br)cc1C(=O)C=C(O)C(=O)O [Example 54] | 2.3
39 | O=C(O)C(O)=CC(=O)c1ccccc1/C=C/c1ccccc1 [Example 55] | 10.8
40 | N#CCCCOc1ccc(C#CCCCCl)cc1C(=O)C=C(O)C(=O)O [Example 56] | 23.6
41 | N#CCCCOc1ccc(/C=C/c2ccccc2)cc1C(=O)C=C(O)C(=O)O [Example 57] | 2.1
42 | N#CCCCOc1ccc(-c2ccccc2)cc1C(=O)C=C(O)C(=O)O [Example 58] | 13.6

Row | SMILES | IC50 [µM]
43 | CCCCCOc1ccccc1C(=O)C=C(O)C(=O)O [Example 59] | 25.3
44 | COc1cccc(C(=O)C=C(O)C(=O)O)c1 [Example 60] | 40
45 | CC(C)(C)OC(=O)Nc1cccc(C(=O)C=C(O)C(=O)O)c1 [Example 61] | 31
46 | Nc1cccc(C(=O)C=C(O)C(=O)O)c1 [Example 62] | 10
47 | N#CCCCOc1ccc(N)cc1C(=O)C=C(O)C(=O)O [Example 63] | 1.7
48 | N#Cc1ccccc1COc1cccc(C(=O)C=C(O)C(=O)O)c1 [Example 64] | 0.23
49 | N#Cc1ccccc1COc1ccccc1C(=O)C=C(O)C(=O)O [Example 65] | 45
50 | O=C(O)C(O)=CC(=O)c1cccc(NC(=O)c2ccccc2)c1 [Example 66] | 11
51 | O=C(O)C(O)=CC(=O)c1cccc(NS(=O)(=O)c2ccccc2)c1 [Example 67] | 16
52 | N#Cc1ccc(C(=O)Nc2cccc(C(=O)C=C(O)C(=O)O)c2)cc1 [Example 68] | 30
53 | N#CC(CCOc1ccccc1C(=O)C=C(O)C(=O)O)(c1ccccc1)c1ccccc1 [Example 69] | 14
54 | N#Cc1cccc(C(=O)Nc2cccc(C(=O)C=C(O)C(=O)O)c2)c1 [Example 70] | 9.2
55 | O=C(O)C(O)=CC(=O)c1cccc(OCc2cccnc2)c1 [Example 71] | 10.6
56 | N#Cc1ccccc1S(=O)(=O)Nc1cccc(C(=O)C=C(O)C(=O)O)c1 [Example 72] | 0.48
57 | O=C(O)C(O)=CC(=O)c1cccc(OCc2ccccn2)c1 [Example 73] | 5.6
58 | N#Cc1ccc(S(=O)(=O)Nc2cccc(C(=O)C=C(O)C(=O)O)c2)cc1 [Example 74] | 3.6
59 | CS(=O)(=O)Nc1cccc(C(=O)C=C(O)C(=O)O)c1 [Example 75] | 19.2
60 | O=C(O)C(O)=CC(=O)c1cccc(NS(=O)(=O)c2ccccc2Br)c1 [Example 77] | 4.8
61 | O=C(O)C(O)=CC(=O)c1cccc(NCc2cccc(C(=O)O)c2)c1 [Example 79] | 6
62 | O=C(Nc1ccccc1)Nc1cccc(C(=O)C=C(O)C(=O)O)c1 [Example 80] | 3
63 | O=C(Nc1cccc(C(=O)C=C(O)C(=O)O)c1)OCc1ccccc1 [Example 81] | 1.4

Row | SMILES | IC50 [µM]
64 | CC(C)(C)OC(=O)c1sccc1COc1cccc(C(=O)C=C(O)C(=O)O)c1 [Example 82] | 19
65 | O=C(O)C(O)=CC(=O)c1cccc(OC/C=C/c2ccccc2)c1 [Example 83] | 9.4
66 | O=C(O)C(O)=CC(=O)c1cccc(OCc2ccsc2C(=O)O)c1 [Example 84] | 0.95
67 | O=C(O)C(O)=CC(=O)c1cccc(NC(=O)c2ccccc2Cl)c1 [Example 85] | 13
68 | Cc1cccc(COc2cccc(C(=O)C=C(O)C(=O)O)c2)c1F [Example 86] | 2.05
69 | O=C(O)C(O)=CC(=O)c1cccc(OCc2ccc(F)cc2Cl)c1 [Example 87] | 2.3
70 | O=C(O)C(O)=CC(=O)c1cccc(NS(=O)(=O)c2cc(Cl)ccc2Cl)c1 [Example 88] | 0.7
71 | O=C(O)C(O)=CC(=O)c1cccc(OCc2ccccc2Br)c1 [Example 89] | 3.3
72 | O=C(O)C(O)=CC(=O)c1cccc(OCc2ccccc2C(=O)O)c1 [Example 90] | 1.8
73 | Cc1ccccc1COc1cccc(C(=O)C=C(O)C(=O)O)c1 [Example 91] | 6.2
74 | COc1cccc(COc2cccc(C(=O)C=C(O)C(=O)O)c2)c1 [Example 92] | 1
75 | O=C(O)C(O)=CC(=O)c1cccc(OCc2cccc(C(F)(F)F)c2)c1 [Example 93] | 1.9
76 | O=C(O)C(O)=CC(=O)c1cccc(OCc2cccc(F)c2)c1 [Example 94] | 5.8
77 | O=C(O)C(O)=CC(=O)c1cccc(NS(=O)(=O)c2cc(Cl)sc2Cl)c1 [Example 95] | 0.48
78 | O=C(O)C(O)=CC(=O)c1cccc(OCc2ccc(-c3ccccc3)cc2)c1 [Example 96] | 50
79 | O=C(O)C(O)=CC(=O)c1cccc(OCc2ccccc2-c2ccccc2)c1 [Example 97] | 2.8
80 | O=C(O)C(O)=CC(=O)c1cccc(OCc2cc(C(=O)O)ccc2Cl)c1 [Example 98] | 1
81 | O=C(O)C(O)=CC(=O)c1cccc(OCc2ccc(C(=O)O)cc2Cl)c1 [Example 100] | 7.8

Same assay, conditions: Tables IXa-IXc; unit inferred; read-out: HCV (IC50)

Row | SMILES | pIC50
82 | O=C(O)C(O)=CC(=O)c1cccc(Cc2cc(Br)cc(Br)c2)c1 [Example 49] | 4.49
83 | N#Cc1ccccc1COc1cccc(C(=O)C=C(O)C(=O)O)c1 [Example 64] | 6.64
84 | O=C(O)C(O)=CC(=O)c1cccc(NC(=O)c2ccccc2)c1 [Example 66] | 4.96
85 | N#Cc1ccccc1S(=O)(=O)Nc1cccc(C(=O)C=C(O)C(=O)O)c1 [Example 72] | 6.32
86 | O=C(Nc1ccccc1)Nc1cccc(C(=O)C=C(O)C(=O)O)c1 [Example 80] | 5.52
87 | O=C(O)C(O)=CC(=O)c1cccc(OCc2ccsc2C(=O)O)c1 [Example 84] | 6.02
88 | O=C(O)C(O)=CC(=O)c1cccc(NS(=O)(=O)c2cc(Cl)ccc2Cl)c1 [Example 88] | 6.15
89 | O=C(O)C(O)=CC(=O)c1cccc(OCc2ccccc2C(=O)O)c1 [Example 90] | 5.74
